Assay results taken from paper PMC12316928, “Synthesis and evaluation of novel thiohydantoin derivatives for antidiabetic activity using in silico in vitro and in vivo methods” (Scientific Reports, 2025).
In brackets after ≈: the same amount, converted by molar mass. Several values for one entry are separate records, joined by “and”; a condition that tells them apart may be missing. Equal entries are not always repeated. Entries after “also recorded” stand apart in the source; their conditions may differ.

Legend:
Cytotoxicity MTT assay = format: cell-based; conditions: mouse, 3T3 fibroblast cells, 48 h, Mean ± SD, n = 3, read-out: IC₅₀ cytotoxicity MTT
Experimental: (§1) The cytotoxic effects of the selected compounds were evaluated against the 3T3 fibroblast cell line (Sigma-Aldrich, product no. 90020107) using the MTT (3-(4,5-dimethylthiazol-2-yl)−2,5-diphenyl tetrazolium bromide) assay, following the protocol established by Mosmann[38]. A cell suspension containing 1 × 10⁵ cells per well was seeded into a 96-well plate and incubated at 37 °C with 5% CO₂ for 48 h. The cells were then treated with different concentrations of test compounds (4, 16, 63, 250, and 1000 µg/mL, dissolved in DMSO) and incubated for an additional 48 h. Following incubation, 180 µL of MTT solution (5 mg/mL in PBS) was added to each well and incubated for 4 h. The formazan crystals formed were solubilized, and absorbance was measured at 570 nm using an ELISA reader. Celecoxib was used as a positive control.

3T3 fibroblast cell line = test: Cytotoxicity MTT assay; format: cell-based
Experimental: as §1

[1] = tested on: STZ-induced diabetic rats; test: Physiological parameters (lipid profile); format: in vivo, Sprague Dawley rats; conditions: Fig. 1; for HDL / LDL / triglycerides: after treatment
Experimental: (§2) Diabetes will be induced in rats (n = 6 per group) by a single intraperitoneal injection of 60-100 mg/kg body weight (BW) streptozotocin dissolved in normal saline. After 5 days of streptozotocin injection, the tail vein blood will be collected to determine the fasting blood glucose (FBG) level. Only rats with FBG over 200 mg/dl will be considered diabetic and used for further experimentation.
Animals will be sacrificed after […] of treatment and parameters including LDL, triglycerides, HDL cholesterol, and glucose will be determined by using KONELAB SYSTEM (Thermo Fisher Scientific, Finland) according to manufacturer’s guidelines.

[2] = tested on: STZ-induced diabetic rats; test: Fasting blood glucose and oral glucose tolerance test (OGTT); format: in vivo, Sprague Dawley rats; conditions: for OGTT (after 120 min): 120 min after glucose 2.0 g/kg; for Fasting blood glucose: Table 7, mean ± SD, 5 rats per group; for FBG and OGTT reduction in words: compared to diabetic control
Experimental: […] After 5 days of streptozotocin injection, the tail vein blood will be collected to determine the fasting blood glucose (FBG) level. Only rats with FBG over 200 mg/dl will be considered diabetic and used for further experimentation.
This assay will be performed in animals after fasting for an overnight (12 h). Then, rats will receive a bolus of glucose (2.0 g/kg body weight) followed by test molecule or control and plasma glucose will be measured from blood collected from tail vein at 0, 30, 60, 90 and 120 min after glucose administration. Plasma glucose levels will be analyzed using commercially available glucometer kits[40].

[3] = tested on: STZ-induced diabetic rats; test: Effect on FBG, body weight and HbA1C over 6 weeks; format: in vivo, Sprague Dawley rats; parameters: % Reduction in FBG: concentration or dose not given beside the values; conditions: for BW (Day 0) / FBG (Day 0): Day 0, baseline; for % Change in BW / % Reduction in FBG: Day 0 to Day 42; for BW (Day 42) / FBG (Day 42): Day 42 of treatment; for HbA1C: end of 6-week treatment
Experimental: as §2
Diabetic Rats (n = 6 per group) will be randomly assigned to groups of six animals each in order to examine the impact of synthetic derivatives on FBG level, BW, and HbA1C. The course of treatment will last for six weeks. At the beginning of the experiment and at weekly intervals during the first 42 days of therapy, the FBG level and BW will be measured. Rats will be denied food for 12 h while fasting, but they will have unrestricted access to water. Commercial glucose oxidase kits will be used to measure the blood glucose level. Blood 7 will be collected through cardiac puncture at the end of study period and levels of HbA1C will be determined. Metformin will be used as standard for comparison purpose.

[4] = target: T1, α-glucosidase (EC3.2.1.20) (Saccharomyces cerevisiae, UniProt P53341); test: α-Glucosidase inhibitory activity assay; format: biochemical; conditions: for inhibition at 200 µg/mL: read-out: %Inhibition (200 µg/ml) alpha glucosidase
T1 construct: purchased Sigma-Aldrich
Experimental: The ability of the synthesized compounds to inhibit α-glucosidase was determined as per the method described by[35]. […] After incubation at 37 °C for 10 min, the reaction was initiated by adding 25 µL of substrate (4 mM) and further incubating at 37 °C for 20 min. The absorbance was measured at 405 nm.

[5] = DPPH free radical scavenging assay
Experimental: The antioxidant activity of synthesized compounds was evaluated using the DPPH free-radical scavenging assay, following the methodology outlined by[34]. This assay is based on the principle that the stable free radical DPPH undergoes a color change from deep purple to yellow upon reduction, indicating hydrogen donation from antioxidant compounds. Different concentrations (3.12, 6.25, 12.5, 25, 50, 100, and 200 µg/mL) of test compounds were prepared in methanol. A 200 µL aliquot of each concentration was mixed with 50 µL of freshly prepared DPPH solution (0.659 mM). The reaction mixtures were incubated at room temperature for 20 min in the dark. Absorbance was recorded at 510 nm using an ELISA microplate reader. Trolox was employed as the reference antioxidant, and the percentage of inhibition was calculated using the following equation:
% Inhibition = [(A0 − A1)/A0] × 100.
Where A0 is the absorbance of the control, and A1 is the absorbance of the sample[34].

[6] = relative to positive control (diabetic rats), Fig. 2

T1 sequence (P53341 whole entry): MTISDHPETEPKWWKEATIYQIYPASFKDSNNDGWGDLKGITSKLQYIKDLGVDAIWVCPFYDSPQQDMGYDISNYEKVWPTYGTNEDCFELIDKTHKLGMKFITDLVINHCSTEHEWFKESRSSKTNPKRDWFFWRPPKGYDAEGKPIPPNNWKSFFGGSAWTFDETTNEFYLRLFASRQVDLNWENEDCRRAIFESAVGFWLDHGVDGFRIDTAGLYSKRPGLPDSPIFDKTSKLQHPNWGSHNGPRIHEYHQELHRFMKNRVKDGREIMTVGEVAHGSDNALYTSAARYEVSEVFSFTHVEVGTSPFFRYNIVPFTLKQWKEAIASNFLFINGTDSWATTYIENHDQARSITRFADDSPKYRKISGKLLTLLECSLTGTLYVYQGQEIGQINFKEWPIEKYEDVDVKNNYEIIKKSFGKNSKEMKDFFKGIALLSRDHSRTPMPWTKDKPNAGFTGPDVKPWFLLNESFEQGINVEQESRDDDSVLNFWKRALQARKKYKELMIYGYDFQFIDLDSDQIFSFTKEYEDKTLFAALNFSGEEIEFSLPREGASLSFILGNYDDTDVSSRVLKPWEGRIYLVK

SMILES | IC50 at 48 h (Cytotoxicity MTT assay) [µg/mL] | Cytotoxicity category (3T3 fibroblast cell line) | OGTT (after 120 min) [2] [mg/dL] | Fasting blood glucose [2] [mg/dL] | FBG and OGTT reduction in words [2] | percentage reduction in FBG [2, 6] [%] | BW (Day 0) [3] [g] | FBG (Day 0) [3] [mg/dL] | % Reduction in FBG [3] [%] | BW (Day 42) [3] [g] | FBG (Day 42) [3] [mg/dL] | HbA1C [3] | inhibition at 200 µg/mL [4] [%] | DPPH free radical scavenging % inhibition ([5]; 3.12 µg/mL) [%] | DPPH free radical scavenging % inhibition ([5]; 6.25 µg/mL) [%] | DPPH free radical scavenging % inhibition ([5]; 12.5 µg/mL) [%] | DPPH free radical scavenging % inhibition ([5]; 25 µg/mL) [%] | DPPH free radical scavenging % inhibition ([5]; 50 µg/mL) [%] | DPPH free radical scavenging % inhibition ([5]; 100 µg/mL) [%] | DPPH free radical scavenging % inhibition ([5]; 200 µg/mL) [%] | also measured
Cc1ccc(S(=O)(=O)N2CC(=O)NC2=S)cc1C(=O)O [FP5, 2-methyl-5-(4-oxo-2-sulfanylideneimidazolidine-1-sulfonyl)benzoic acid] | 690 ± 13.2 (≈ 2190 µM) | Low cytotoxicity | 295.3 ± 9.9 | 236.1 ± 8.1 | significant reductions | 16.3 | 216.8 ± 8.1 | 281.0 ± 9.9 | 21.6 | 200.1 ± 8.5 | 220.2 ± 9.2 | 7.8% and 7.8 ± 0.3% | 33.2 ± 0.87 | 17.8 ± 1.2 | 29.6 ± 1.7 | 44.5 ± 2.3 | 58.7 ± 2.6 | 69.3 ± 2.9 | 73.1 ± 3.1 | 78.9 ± 3.3 | lipid profile effect in words [1]: moderate improvements; % Change in BW [3]: −7.7%; alpha-glucosidase inhibition in words [4]: inactive; IC₅₀ (concentration required to inhibit 50% of DPPH free radicals) [5]: 58.1 ± 2.6 µg/mL
Cc1ccc(-c2cc(C(F)(F)F)nn2-c2ccc(S(N)(=O)=O)cc2)cc1 [Celecoxib, reference compound] | 342 ± 9.7 (≈ 897 µM) | Moderate cytotoxicity | – | – | – | – | – | – | – | – | – | – | – | – | – | – | – | – | – | – | –
CN(C)C(=N)N=C(N)N [Metformin, reference compound] | – | – | 159.4 ± 8.3 | 119.2 ± 6.5 | – | – | 216.2 ± 8.0 | 282.3 ± 10.5 | 49.5 | 225.6 ± 9.4 | 142.5 ± 7.8 | 6.1 ± 0.3% | – | – | – | – | – | – | – | – | HDL [1]: 49.2 ± 2.7 mg/dL; LDL [1]: 45.1 ± 2.4 mg/dL; triglycerides [1]: 94.3 ± 5.1 mg/dL
CC(=O)c1cccc(S(=O)(=O)N2CC(=O)NC2=S)c1 [FP4, 1-(3-acetylbenzene-1-sulfonyl)−2-sulfanylideneimidazolidin-4-one] | 598 ± 11.4 (≈ 2010 µM) | Moderate cytotoxicity | 275.2 ± 9.1 | 218.4 ± 7.3 | – | 22.6 | 215.9 ± 7.8 | 279.1 ± 9.7 | 28.9 | 205.7 ± 8.6 | 198.4 ± 8.3 | 7.2 ± 0.3% | 51.4 ± 1.25 | 22.1 ± 1.5 | 38.2 ± 2.1 | 55.7 ± 2.6 | 71.6 ± 3.0 | 81.2 ± 3.5 | 85.9 ± 3.7 | 87.4 ± 3.9 | HDL [1]: 42.3 ± 2.5 mg/dL; LDL [1]: 54.8 ± 3.1 mg/dL; triglycerides [1]: 112.5 ± 6.2 mg/dL; percentage reduction in OGTT [2, 6]: 19.4%; % Change in BW [3]: −4.7%; IC50 ([4]; Mean ± SD, read-out: IC50 alpha glucosidase (converted)): 434 µM
COc1ccc(S(=O)(=O)N2CC(=O)NC2=S)cc1C(=O)O [FP6, 2-methoxy-5-(4-oxo-2-sulfanylideneimidazolidine-1-sulfonyl)benzoic acid] | > 900 | negligible cytotoxicity; also recorded: Non-toxic | 307.5 ± 10.4 | 249.1 ± 8.5 | minor reductions | – | – | – | – | – | – | – | 36.4 ± 1.03 | 8.5 ± 0.8 | 16.2 ± 1.1 | 24.9 ± 1.6 | 36.4 ± 2.2 | 44.7 ± 2.5 | 49.8 ± 2.6 | 53.6 ± 2.8 | IC₅₀ cytotoxicity MTT (3T3 fibroblast cell line; 48 h, Mean ± SD, n = 3): 930.4 ± 10.6 µg/mL; alpha-glucosidase inhibition in words [4]: inactive
OCCN1C[C@H](O)[C@@H](O)[C@H](O)[C@H]1CO [Miglitol, reference compound] | – | – | – | – | – | – | – | – | – | – | – | – | – | – | – | – | – | – | – | – | inhibition at 50 µg/mL ([4]; read-out: %Inhibition alpha glucosidase): 87.9 ± 1.09%
O=C1CN(S(=O)(=O)c2cccc(C(=O)O)c2)C(=S)N1 [FP2, 3-(4-oxo-2-sulfanylideneimidazolidine-1-sulfonyl)benzoic acid] | 845 ± 12.7 (≈ 2810 µM) | Low cytotoxicity | 288.0 ± 9.5 | 229.9 ± 7.6 | significant reductions | 18.5 | 218.3 ± 7.5 | 280.5 ± 10.1 | 24.9 | 202.8 ± 7.9 | 210.7 ± 9.6 | 7.5% and 7.5 ± 0.4% | 48.1 ± 0.94 | 18.4 ± 1.3 | 31.3 ± 1.9 | 47.6 ± 2.4 | 62.9 ± 2.8 | 74.5 ± 3.1 | 79.8 ± 3.2 | 82.6 ± 3.3 | lipid profile effect in words [1]: moderate improvements; % Change in BW [3]: −7.1%; IC₅₀ (concentration required to inhibit 50% of DPPH free radicals) [5]: 52.4 ± 2.5 µg/mL
O=C1O[C@H]([C@@H](O)CO)C(O)=C1O [Ascorbic Acid, reference compound] | – | – | – | – | – | – | – | – | – | – | – | – | – | 30.2 ± 1.9 | 50.6 ± 2.5 | 68.9 ± 2.8 | 82.3 ± 3.1 | 89.6 ± 3.3 | 94.2 ± 3.5 | 96.8 ± 3.7 | –
